Source: patent publication EP0855387A1, “2-ACYLAMINOBENZAMIDE DERIVATIVES AND PREVENTIVE AND REMEDY FOR DISEASES CAUSED BY THE SUPERMULTIPLICATION OF VASCULAR INTIMAL CELLS” (KISSEI PHARMACEUTICAL CO., LTD., priority 1995, dated 1997)
Where two headings read alike, the source gives them in different places.

Assays:
[1] = test system: Spontaneous hypertensive rat-derived vascular smooth muscle cells (VSMCs) in thoracic aorta; assay: Inhibition test on vascular smooth muscle cells proliferation (3H-thymidine incorporation); type: cell-based; settings: Rattus norvegicus, VSMC
Method: Thus, the compounds of the present invention have a very potent inhibitory effect on vascular smooth muscle cells proliferation.
Spontaneous hypertensive rat-derived vascular smooth muscle cells (VSMCs) in thoracic aorta were isolated by explant technique. The VSMCs were placed into 96 wells at 5000 cells/well and incubated in DMEM containing 10 % fetal calf serum at 37 °C in 95 % air and 5 % carbon dioxide for 3 days. After the incubation, the medium was replaced with DMEM containing each compound and ^3H-thymidine, and then the VSMCs were incubated. 24 hours later, the incorporation of ^3H-thymidine into DNA was determined and the radioactivity was defined as proliferation inhibitory activity of VSMCs. The activity of each compound was shown as a concentration which reduced the radioactivity of non-treated group by 50 % (IC50).

[2] = test system: thrombosis-induced neointimal hyperplasia in mouse femoral artery; assay: Inhibition test on neointimal hyperplasia (thrombosis-induced model); type: in vivo; settings: oral, once a day for 3 weeks; dose reducing the neointimal area of the non-treated group by 50 %
Method: The effect of compounds in vivo was evaluated by using a model of thrombosis-induced neointimal hyperplasia in mouse femoral artery. Each compound was suspended in 0.5 % carboxymethylcellulose sodium solution and administered orally to mice once a day for 3 weeks. After final administration, the femoral artery was fixed and removed. Cross sections of vessels were made consecutively and the neointimal area induced and formed by thrombosis was measured. Inhibitory activity on neointimal hyperplasia of each compound was shown as a dose which reduced the area of the non-treated group by 50 % (ID50).

[3] = Acute toxicity test; type: in vivo; settings: single oral administration, dose of 2000mg/kg; for death (dead mice): 2000 mg/kg
Method: The compounds represented by the general formula (I) of the present invention have an LD50 value extremely preferable to that of Tranilast and therefore are very safer compounds.
Male ICR nice were fasted for 4 hours. 2-(3,4-Dimethoxycinnamoylamino)benzamide was suspended in 0.5 % carboxymethylcellulose sodium and administered orally at doses of 300, 1000 and 2000mg/kg, respectively. Dead mice and abnormal behavior were not observed even in the group administered at a dose of 2000mg/kg.

[4] = test system: restenosis after PTCA surgery; settings: patients after PTCA surgery; incidence without the drug about 30-40%; cited from earlier work
[5] = 3H-thymidine incorporation into DNA, 24 hours incubation with compound, read-out: Concentration of 50% inhibitory activity (IC50)

SMILES | IC50 [1, 5] [µM] | Dose of 50% inhibitory activity (ID50) [2] [mg/kg] | also measured
COc1ccc(/C=C/C(=O)Nc2ccccc2C(N)=O)cc1OC [Compound 4, (E)-2-(3,4-Dimethoxycinnamoylamino)benzamide] | 27 | 1 | abnormal behavior ([3]; mice): not observed; death (dead mice) ([3]; listed as 2-(3,4-Dimethoxycinnamoylamino)benzamide): not observed; death (dead mice) ([3]; listed as 2-(3,4-dimethoxycinnamoylamino)benzamide): no death was observed
CCOc1ccc(/C=C/C(=O)Nc2ccccc2C(N)=O)cc1OC [Compound 17, (E)-2-(4-Ethoxy-3-methoxycinnamoylamino)benzamide] | 5 | 1 | 
CCOc1ccc(/C=C/C(=O)Nc2cc(OC)c(OC)cc2C(N)=O)cc1OC [Compound 65, (E)-4,5-Dimethoxy-2-(4-ethoxy-3-methoxycinnamoylamino)benzamide] | 12 |  | 
COc1ccc(/C=C/C(=O)Nc2cc(OC)c(OC)cc2C(N)=O)cc1OC [Compound 66, (E)-4,5-Dimethoxy-2-(3,4-dimethoxycinnamoylamino)benzamide] | 13 |  | 
COc1ccc(NC(=O)/C=C/c2ccc(OC)c(OC)c2)c(C(N)=O)c1 [Compound 67, (E)-2-(3,4-Dimethoxycinnamoylamino)-5-methoxybenzamide] | 57 |  | 
COc1cc(/C=C/C(=O)Nc2ccccc2C(N)=O)cc(OC)c1O [Compound 69, (E)-2-(3,5-Dimethoxy-4-hydroxycinnamoylamino)benzamide] | 55 |  | 
COc1ccc(C=CC(=O)Nc2ccccc2C(=O)O)cc1OC [Tranilast, 2-(3,4-dimethoxycinnamoylamino)benzoic acid, reference compound] |  | 100 | IC50 ([1]; in vitro, read-out: concentration exhibiting a 50% inhibitory activity on vascular smooth muscle cells proliferation): 231 µM; restenosis observed when administering after PTCA surgery [4]: 10-15%
